Paper PMC5792912 (Royal Society Open Science, 2018)

What was measured:
[1] = molecular target: T1, recombinant human soluble COMT (S-COMT) (Homo sapiens, UniProt P21964); test: Methylation kinetics with recombinant human soluble COMT; type: in vitro ADME; settings: for Clint: intrinsic clearance (Vmax/Km)
T1 construct: made in house
T1 sequence (P21964 1-221 isoform P21964-2): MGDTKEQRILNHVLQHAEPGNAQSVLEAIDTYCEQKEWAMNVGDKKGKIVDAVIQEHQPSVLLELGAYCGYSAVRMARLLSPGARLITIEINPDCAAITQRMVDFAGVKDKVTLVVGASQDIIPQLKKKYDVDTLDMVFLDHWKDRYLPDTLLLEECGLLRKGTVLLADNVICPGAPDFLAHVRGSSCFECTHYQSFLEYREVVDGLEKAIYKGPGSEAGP
Experimental: (§1) Reaction mixtures were pre-incubated at 37°C for 5 min and initiated by the addition of SAM to a final concentration of 0.4 mM. The samples were incubated for a certain period of time and the reaction was terminated by the addition of 200 µl ice-cold acetonitrile and then centrifuged at 20 000g, 4°C, for 20 min. Control incubations were performed either without human liver cytosol, or without SAM or without substrate. The supernatants were subjected to ultra-fast liquid chromatography (UFLC) coupled with a diode array detector (DAD) and an electrospray ionization (ESI) mass spectrometer (MS) analyzer.
(§2) 7,8-DHCs and their methylated conjugates were analysed by a UFLC spectrometry system (Shimadzu, Kyoto, Japan), equipped with two LC-20AD pumps, a DGU-20A3 vacuum degasser, a SIL-20ACHT auto-sampler, a CTO-20AC column oven, an SPD-M 20A DAD, a CBM-20A communications bus module, a mass detector (2010EV) with an ESI interface and a computer equipped with UFLC-MS SOLUTION v. 3.41 software. A Shimadzu ODS (75.0 × 2.0 mm, 3 µm) analytical column was used to separate 7,8-DHCs and their methylated conjugates. Column temperature was kept at 40°C. […] The methylation samples were stable over 72 h at 4°C. 7,8-DHC methylation was quantified by the standard curves of the methylated conjugates at the detector wavelength of 325 nm, which were linear from 0.01 to 10 µM (the correlation coefficient was 0.999).
(§3) For estimating kinetic parameters, 7,8-DHCs (0.1–40 µM) were incubated with pooled HLC and S-COMT. 7,8-DHCs (0.1–40 µM) were incubated with HLC or S-COMT for 5 min, using a microsomal protein concentration of 0.5 mg ml^−1 or 0.002 mg ml^−1 for HLC and S-COMT, respectively. Kinetic constants for 7,8-DHCs methylation by HLC and S-COMT were obtained by fitting the Michaelis–Menten kinetics equation (3.1) to experimental data.
(§4) For the Michaelis–Menten kinetic model, 3.1 v=Vmax×[S]/Km+[S], where v is the rate of reaction, [S] is the substrate concentration, Vmax is the maximum velocity estimate and Km is the apparent affinity constant.
(§5) All incubations were performed in duplicate. Kinetic constants were obtained using GraphPad PRISM 6 (GraphPad Software, Inc. La Jolla, CA) software.

COMT in HLC [2] = molecular target: T2, COMT in HLC (Homo sapiens, UniProt P21964); test: Methylation kinetics in pooled human liver cytosol (HLC); type: in vitro ADME; settings: for Clint: intrinsic clearance (Vmax/Km); for COMT substrate in human liver cytosol: human liver cytosol with SAM
T2 construct: Pooled human liver cytosol (HLC) from seven male donors; tissue Research Institute for Liver Diseases (Shanghai, China) Lot; QROX; host or cells: pooled human liver cytosol, seven male donors
T2 sequence (P21964 1-221 isoform P21964-2): T1 sequence (P21964 1-221 isoform P21964-2)
Experimental: as §1, §2, §3, §4, §5

COMT in HLC [3] = molecular target: T2, COMT in HLC; test: as above; type: in vitro ADME; settings: identified by NMR
[4] = after administration in rats; cited from earlier work
human hepatocytes = settings: cited from earlier work

Clint [1] [µL/min/mg]	Clint (COMT in HLC [2]; HLC) [µL/min/mg]	COMT substrate in human liver cytosol (COMT in HLC [2])	methylated metabolite identified (COMT in HLC [3])	SMILES	half-life [4] [min]	methyl-derived metabolites (human hepatocytes) [%]	Vmax ([1]; best-fit value ± s.e.) [nmol/min/mg]	Vmax (COMT in HLC [2]; HLC, best-fit value ± s.e.) [nmol/min/mg]
31.1	0.017	COMT substrates	8-O-methylated 7,8-DHC	O=C(O)Cc1cc(=O)oc2c(O)c(O)ccc12 [4-ADPN, 4-acetic acid daphnetin]	–	–	–	–
154.8	0.70	COMT substrates	8-O-methylated 7,8-DHC	Cc1cc(=O)oc2c(O)c(O)ccc12 [4-MDPN, 4-methyl daphnetin]	–	–	–	–
424.0	1.91	COMT substrates	8-O-methylated 7,8-DHC	O=c1cc(-c2ccccc2)c2ccc(O)c(O)c2o1 [4-PDPN, 4-phenyl daphnetin]	–	–	–	–

SMILES	Clint [1] [µL/min/mg]	Clint (COMT in HLC [2]; HLC) [µL/min/mg]	COMT substrate in human liver cytosol (COMT in HLC [2])	methylated metabolite identified (COMT in HLC [3])	half-life [4] [min]	methyl-derived metabolites (human hepatocytes) [%]	Vmax ([1]; best-fit value ± s.e.) [nmol/min/mg]	Vmax (COMT in HLC [2]; HLC, best-fit value ± s.e.) [nmol/min/mg]
O=c1ccc2ccc(O)c(O)c2o1 [daphnetin, 7,8-dihydroxycoumarin]	169.5	0.52	COMT substrates	8-O-methylated 7,8-DHC	15	37.3	81.4 ± 2.4	0.11 ± 0.0034
